{"source": "patent US12187759B2", "about": "“TLR7 agonists” (Primmune Therapeutics, Inc., priority 2019, dated 2025)", "system": "hPBMCs (Human Peripheral Blood Mononuclear Cells)", "assay": "Induction of interferon-α in hPBMCs in vitro", "assay_type": "cell-based", "outline": "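Peripheral blood mononuclear cells from healthy human donors were dispensed into replicate culture wells at 1.0-7.5×10^6 cells per well. They were exposed to test compound for 24 hours at 37° C. in humidified 5% CO2, with untreated wells as controls. Secreted interferon-α was quantified with a multisubtype ELISA or as IFNα2a in a luminex panel. MEC was defined as the lowest concentration giving a significant rise above baseline, generally at least 80 pg/ml. IFNmax was the highest IFN level seen at any tested concentration.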"}
{"molecule": "CC[C@H](O)[C@@H]1C[C@@H](O)[C@H](n2c(=O)sc3c(=O)[nH]c(N)nc32)O1", "note": "[Compound A, 5-amino-3-((2R,3R,5S)-3-hydroxy-5-((S)-1-hydroxypropyl)tetrahydrofuran-2-yl)thiazolo[4,5-d]pyrimidine-2,7(3H,6H)-dione, reference compound]", "values": [{"measurement": "Donor 1 MEC", "setting": "Donor 1, interferon-α production", "result": "≤3.125", "unit": "µM"}, {"measurement": "Donor 1 IFNmax", "setting": "Donor 1, maximum IFN at any concentration of the evaluated range", "result": 1061, "unit": "pg/mL"}, {"measurement": "Donor 2 MEC", "setting": "Donor 2, interferon-α production", "result": "≤3.125", "unit": "µM"}, {"measurement": "Donor 2 IFNmax", "setting": "Donor 2, maximum IFN at any concentration of the evaluated range", "result": 481, "unit": "pg/mL"}, {"measurement": "Donor 3 MEC", "setting": "Donor 3, interferon-α production", "result": "≤3.125", "unit": "µM"}, {"measurement": "Donor 3 IFNmax", "setting": "Donor 3, maximum IFN at any concentration of the evaluated range", "result": 2243, "unit": "pg/mL"}, {"measurement": "Emax", "setting": "Homo sapiens, PBMC, 24 h, peak IFNα2a as percentage of peak response of standard 2-Amino-7-(cyclopropylmethyl)-9-B-D-xylofuranosyl-7,9-dihydro-1H-purine-6,8-dione, averaged across donors, read-out: IFNrmax, Relative Maximal IFNα2a Production (%)", "result": 103, "unit": "%"}, {"measurement": "minimal effective concentration", "setting": "Homo sapiens, PBMC, minimal effective concentration for interferon-α production (generally at least 80 pg/ml above baseline), geometric mean across at least three donors, 24 hours, read-out: Weighted MEC", "result": "≤ 3.1", "unit": "µM"}]}
